Laboratory results as given in patent US6348487B1, “2-phenyl benzimidazole derivatives as MCP-1 antagonists” (Millennium Pharmaceuticals, Inc., priority 1996, dated 2002).
Several values for one entry are separate records, joined by “and”; a condition that tells them apart may be missing. Identical values can stand only once. Marks after values point to notes of the source that are not given here.

Columns and labels:
[1] = test system: T cell recruitment at sites of DHR; assay: Inhibition of T cell recruitment to rat skin inflammatory (DHR) sites; format: in vivo
Procedure: Inbred, approximately 200 g, male Lewis rats were used in all experiments. Cutaneous delayed hypersensitivity (DHR) was induced as previously described (1). Briefly, rats were sensitized to KLH (Sigma Chemical Co., St. Louis, Mo.) by administering 50 μg KLH in 0.1 mL complete Freund's adjuvant (CFA; Sigma Chemical Co.) into each of 4 subcutaneous sites. After 14 days, DHR was elicited by the challenge of 5 μg KLH in PBS into multiple intradermal sites on the back. Analysis was performed 24 hours after antigen challenge. For each experiment, there were at least three groups of animals of at least four animals in each group. […]
T cell recruitment at sites of DHR was quantified using methods previously described (1-4). […] The cells in the effluent were highly purified (>95%) rat T cells as assessed by anti-rat CD3 (monoclonal antibody KT3, Biosource International, Camarillo, Calif.) immunoreactivity by flow cytometry. […] Skin challenge sites (8 mm in diameter) were counted on a γ counter 24 hours after injection of radiolabeled T cells. Lung, liver, and spleen were also collected and counted as comparative indices for evaluation of input.
Statistical significance was determined using a paired Student's t-test. […]

[2] = test system: T lymphocyte blast cells (CD3-Blasts); assay: CD3-Blast Chemotaxis Assay (transendothelial migration to MCP-1); format: cell-based, human; conditions: 10 μM compound; MCP-1 about 10 nM; ECV304 endothelial coated Transwells
Description: Recombinant human MCP-1 was obtained from Peprotech (Rockey Hill, N.J.). T lymphocyte blast cells (CD3-Blasts) were generated by standard protocols (Coligan, J. E., A. M. Kruisbeek, D. H. Macgulies, E. M. Shevach, and W. Strober, editors. 1992. Current Protocols in Immunology. John Wiley and Sons, New York 7.1.2, 7.10.1-7.10. 10). Briefly, human peripheral blood mononuclear cells (PBMC) were isolated from heparinized venous blood by Percoll density gradient centrifugation (d=1.088) at room temperature. RBCs were removed by hypotonic lysis or dextran sedimentation. Blast cells were generated by incubating 2×10^6 PBMC in 24-well tissue culture plates that were coated with 2.5 μg of an anti-CD3 monoclonal antibody (identified as TR66, a gift from Dr. A. Lanzivecchia; similar monoclonal antibody is HIT3a, from Parmingen #30111A) at 37° C. for 48 to 72 hours, and then transferring 12 wells to T25 or T75 flasks with RPMI (Roswell Park Memorial Institute 1640, a growth cell medium available from Gibco/RBL, Inc., New York)+10% FCS (fetal calf serum)+50 units/ml IL-2. The cells are expanded and cultured for up to 3 weeks. CD3-Blast chemotaxis was assessed no sooner than 3 to 4 days after transfer to the IL-2 containing medium using a modification of a transendothelial migration assay (Carr. M. W., S. J. Roth, B. Luther, S. S. Rose, and T. A. Springer. 1994. Monocyte chemoattractant protein 1 acts as a T-lymphocyte chemoattractant. Proc. Natl. Acad. Sci. USA 91:3652-6). The endothelial cells used for this assay were the endothelial cell line ECV304. (ECV304 was from the European Collection of Animal Cell Cultures, Porton Downs, UK, assession #92091712). Endothelial cells were cultured on 6.5 mm diameter Transwell culture inserts (Costar) with a […] pore size. […] Background migration was determined by counting cells that migrated in the absence of MCP-1 in the lower chamber. […] The percent inhibition by compounds of directed migration was determined by the following formula: [drawing 32] […]

melting point [°C] | Molecule | inhibition of T cell recruitment in rat DHR ([1]; 30 and 23 mg/kg per os at the time of antigen challenge, 24 hour period (FIG. 2)) | recruitment of 111In-labeled rat T cells to skin DHR sites ([1]; administered once per os at the time of antigen challenge (FIG. 2)) | % Inhibition of Chemotaxis at 10 μM [2]
– | CCN(CC)CCN(CCN(CC)CC)c1ccc(-c2nc3cc(Cl)c(Cl)cc3[nH]2)cc1 [Example 1, N-[4-(5,6-dichloro-1H-benzimidazol-2-yl)-phenyl]-N-(2-diethylamino-ethyl)-N, N-diethyl-ethane-1,2-diamine] | statistically significant inhibitory effect | inhibited the recruitment of ^111In-labeled rat T cells to skin DHR sites in a dose-dependent fashion | 62-142* %
165 to 167 | CN(CCN1CCCCC1)c1ccc(-c2nc3cc(Cl)c(Cl)cc3[nH]2)cc1 [Example 2, N-[4-(5 ,6-dichloro-1H-benzimidazol-2-yl)-phenyl]-N-methyl-N-(2-piperidin-1-yl-ethyl)-amine] | – | – | 100% and 102%
– | N-[4-(5,6-dichloro-1H-benzimidazol-2-yl)-phenyl]-N-(2-diethylaminoethyl)-N-methyl, N-diethyl-ethane-1,2-diamine [Example 3] | – | – | 95% and 102%
